Experimental data taken from US20250108070A1, “METHOD FOR REPROGRAMMING CD8+ T CELLS TO ENHANCE THEIR THERAPEUTIC POTENTIAL AND APPLICATIONS THEREOF” (INSTITUT PASTEUR, priority 2022, published 2025).

System: CD8+ T cells from people without HIV
Test: In vitro reprogramming of bulk CD8+ T cells, phenotype without further stimulation
Format: cell-based, human
Procedure: FIG. 1. Induction of stem-like CD8^+ T cells with high survival capacity and polyfunctionality by in vitro reprogramming. A. CD8^+ T cells from people without HIV were incubated with medium, vehicle control, or a GSK3 inhibitor, for 12 hs and the phenotype was evaluated by flow cytometry. A representative donor from a total of 4 is shown. B. Frequencies of CD8^+ T cell subpopulations after each treatment. C. Fold change of CD8^+ T cell subpopulations after treatment with vehicle control or a GSK3 inhibitor, relative to medium alone condition (n=4). D. Expression of TCF-1 in CD8^+ T cell subpopulations (n=4). E. The expression of the indicated markers in cells pre-treated with vehicle control or a GSK3 inhibitor was evaluated by flow cytometry. The fold change in the expression induced by 48 hs anti-CD3/CD28 stimulation, relative to unstimulated cells, is shown (n=5). F. Left: Flow cytometry analysis of dead cells (Aqua Live/Dead^+) among total and T-bet+CD8^+ T cells. Right: Fold change in dead CD8^+ T cells induced by anti-CD3/CD28 stimulation, relative to the unstimulated condition (n=5). G. Frequencies of granzyme B^+, TL-2^+, IFN-γ^+, and TNF-α^+CD8^+ T cells after anti-CD3/CD28 stimulation. H. Expression of 1 to 4 functions in CD8^+ T cells after anti-CD3/CD28 stimulation (n=5). I. After reprogramming with the GSK3 inhibitor, CD8^+ T cells were stimulated for 48 hs with anti-CD3/CD28, followed by wash and resting for 5 days. Then, cells were restimulated for another 48 hs with anti-CD3/CD28. Left: Flow cytometry analysis of proliferating (CFSE dilution) CD8^+ T cells. Right: Frequencies of CD8^+ T cells with 0, 1-3 or ≥4 cell divisions (n=9). J. Frequency of the total HCMV pp65-specific CD8^+ T cell response (IFN-γ^+ or CD107a^+ or TNF-α^+), after vehicle control or GSK3 inhibitor treatment, followed by HCMV pp65 peptides stimulation for 6 hs (n=6). K. Frequencies of CD8^+ T cell subpopulations among HCMV pp65-specific CD8^+ T cells (n=6). L. Expression of IFN-γ, CD107a, and TNF-α in HCMV pp65-specific CD8^+ T cells (n=6). M. Frequency of the total HCMV pp65-specific CD8^+ T cell response after HCMV pp65 peptides stimulation for 6 days (n=6). *P<0.05; **P≤0.01. NS: Not statistically significant. TSCM: Stem cell memory; TCM: Central memory; TTM: Transitional memory; TEM: Effector memory; TTE: Terminal effector.
FIG. 2. A. Flow cytometry gating strategy used to identify CD8^+ T cell subpopulations: Naïve, Stem cell memory (TSCM), Central memory (TCM), Transitional memory (TTM), Effector memory (TEM), and Terminal effector (TTE). B. Expression of CCR7, CD27 and TCF-1 in total CD8^+ T cells after treatment with vehicle control, or the GSK3 inhibitors BIO or TWS119, for 12 hs. The median fluorescence intensity of each marker is depicted. C. Fold change in TSCM, TCM and TEM cells induced by BIO or TWS119, relative to vehicle control (n=3 people without HIV). D. Fold change in T-bet^+ cells among TSCM and TCM induced by anti-CD3/CD28 stimulation, relative to vehicle control, in cells previously treated with vehicle control, BIO or TWS119 (n=3). E. Fold change in T-bet^+ cells among naïve/TSCM induced by anti-CD3/CD28 stimulation (0.2 and 1 μg/mL), relative to unstimulated cells, previous treatment with vehicle control or the GSK3 inhibitor (n=3). F. Fold change in T-bet^+ cells among each CD8^+ T cell subpopulation induced by anti-CD3/CD28+ICAM-1 stimulation, relative to unstimulated cells (n=5). G. Frequency of IL-2^+TNF-α^+ cells among each CD8^+ T cell subpopulation after anti-CD3/CD28+ICAM-1 stimulation (n=5). H. Correlation between the frequency of PD-1^+LAG-3^+TIM3^+TIGIT^+CD8^+ T cells and the proportion of CD8^+ T cells with ≥4 cell divisions after restimulation (n=6). I. After reprogramming with the GSK3 inhibitor, CD8^+ T cells were left unstimulated, stimulated once for 48 hs with anti-CD3/CD28, or stimulated twice with anti-CD3/CD28. The expression of T-bet in TCM and TTM cells is shown (n=5). *P<0.05. […]

[1] = BIO and TWS119 in parallel, 3 μM, 12 hs, FIG. 2C

## O=C1Nc2cc(Br)ccc2/C1=C1/Nc2ccccc2/C1=N\O [BIO, 6-bromoindirubin-3′-oxime]
3 μM, 12 hs, FIG. 1D
  expression of TCF-1: enhanced expression
3 μM, 12 hs, FIGS. 1A-C
  CD8+ T cells with stem cell memory (TSCM) and central memory (TCM) phenotype: enrichment
  effector memory (TEM) and terminal effector (TTE) cells: decrease
3 μM, 12 hs, absence of further stimulation, FIG. 1A
  surface expression of CCR7 and CD27: upregulation
BIO and TWS119 in parallel, 3 μM, 12 hs, FIG. 2B
  CCR7, CD27, and TCF-1: induced
[1]
  TEM cells: decrease
  TSCM and TCM cells: increase
FIGS. 2B and C
  effect compared between the two GSK3 inhibitors: greater effect than TWS119
